Where two headings read alike, the source gives them in different places.
Key:
A2A adenosine receptors = A2A adenosine receptors (Sus scrofa, UniProt K9IW67); test: Competitive radioligand binding, [3H]ZM241385, pig striatum membranes; details: [3H]ZM241385, Gpp(NH)p present
Method: Membranes were also obtained from porcine striatial cells as follows. […] The homogenate was filtered through cotton gauze and centrifuged at 48,000g for 15 minutes at 4° C. […] The final pellet was frozen at −80° C. until used for receptor binding assays.

[1] = test system: rat isolated perfused heart; test: Reversal time of coronary vasodilation in rat isolated perfused hearts; details: bolus, rat isolated perfused heart;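 note: each agonist bolused at its minimal concentration giving equal maximal coronary conductance rise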
Method: FIG. 10. Reversal of effect of agonist stimulation on CC. […] CC was measured at 8, 16 and 24 minutes after administration (FIG. 10A). […] R and N are the correlation coefficient and number of agonists, respectively.
The relationship between the affinity of agonists for the A2A receptor and the rate of reversal of agonist-mediated responses (coronary vasodilation in heart and cAMP accumulation in PC12 cells) upon termination of drug administration were determined. […] The duration of the coronary vasodilation in isolated rat hearts caused by adenosine, the CVT compounds, and other agonists measured as the time to 50% and 90% (t0.5 and t0.9, respectively) reversal of the increases in coronary conductance after termination of drug administration are summarized in Table 4.

[2] = molecular target: T1, human A1 adenosine receptors (Homo sapiens, UniProt P30542); test: Competitive radioligand binding, [3H]CPX, CHO-hA1AdoR membranes; details: in words
T1 construct: expressed in transfected cells
T1 sequence (P30542 1-326): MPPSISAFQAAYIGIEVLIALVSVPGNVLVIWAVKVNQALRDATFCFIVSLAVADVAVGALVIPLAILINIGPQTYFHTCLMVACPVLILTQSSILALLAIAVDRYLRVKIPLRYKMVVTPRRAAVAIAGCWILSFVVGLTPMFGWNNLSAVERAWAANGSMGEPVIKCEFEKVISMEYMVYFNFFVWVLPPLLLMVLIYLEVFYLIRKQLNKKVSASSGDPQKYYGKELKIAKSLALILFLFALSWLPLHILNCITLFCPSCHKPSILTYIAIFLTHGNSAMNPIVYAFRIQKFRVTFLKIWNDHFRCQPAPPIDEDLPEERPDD
Method: The cell suspensions were homogenized and centrifuged at 48,000g for 15 minutes. The pellets were washed three times by re-suspension in ice-cold Tris-HCl buffer and centrifugation. The final pellet was re-suspended in Tris-HCl, aliquoted and frozen at −80° C. until used for receptor binding assays.

[3] = test system: rat isolated perfused heart; test: Coronary conductance / coronary perfusion pressure in isolated perfused rat hearts; details: for EC50: Rattus norvegicus
Method: Briefly, rats of either sex weighing 230-260 grams were anesthetized by intraperitoneal injection of a mixture of ketamine (100 mg/ml) and xylazine (20 mg/ml). The chest of each rat was opened and the heart removed, and rinsed in ice-cold modified Krebs-Henseleit (K-H) solution containing NaCl 117.9, KCl 4.5, CaCl2 2.5, MgSO4 1.18, KH2PO4 1.18, pyruvate 2.0 mmo/L. The aorta was cannulated and the heart was perfused at a flow rate of 10 ml/min with modified K-H solution. The K-H solution (pH 7.4) was gassed continuously with 95% O2 and 5% CO2 and warmed to 35±0.5° C. The heart was electrically paced at a fixed cycle length of 240 ms (250 beats/min) using a bipolar electrode placed in the left atrium. The electrical stimuli were generated by a Grass stimulator (Model S48, W. Warwick, R.I.) and delivered through a Stimuli Isolation Unit (Model SIU5, Astro-Med, Inc., NY) as square-wave pulses of 3-msec in duration and with an amplitude of at least twice the threshold intensity.
The identity of the adenosine receptor subtype (A1 or A2A) mediating the coronary vasodilation was determined.
Coronary perfusion pressure (CPP) was measured using a pressure transducer that was connected to the aortic cannula via a T-connector positioned approximately 3 cm above the heart. CPP was monitored throughout an experiment and recorded either on a chart recorder (Gould Recorder 2200S, Valley View, Ohio) or a computerized recording system (PowerLab/4S, ADInstruments Pty Ltd, Australia). Only hearts with CPP ranging from 60 to 85 mmHg (in the absence of drugs) were used in the study. CC conductance (in ml/min/mmHg) was calculated as the ratio between coronary perfusion rate (10 ml/min) and CPP.

[4] = Coronary blood flow and reversal time, intracoronary infusion in open-chest anesthetized pigs; type: in vivo
Method: The magnitude of the effect of A2A adenosine receptor agonists on coronary dilation and the duration of the effect was determined in pigs weighing 22-27 kg. […] In addition, animals were used in accordance with the guidelines of the University of Kentucky Institutional Animal Care and Use Protocol.
Anesthesia was maintained with additional sodium pentobarbital (1.5-2 mg/kg, i.v.) every 15-20 minutes. Animals were ventilated via a tracheotomy tube using a mixture of room air and 100% O2. Tidal volume, respiratory rate and fraction of O2 in inspired air were adjusted to maintain arterial blood gas (ABG) and pH values. […] Lactate Ringers solution was administered via an ear or femoral vein as an initial bolus of 300-400 ml followed by a continuous infusion at a rate of 5-7 ml/kg/hr. A catheter was inserted into the femoral artery to monitor arterial blood pressure.
The heart was exposed through a median sternotomy and suspended in a pericardial cradle. Left ventricular pressure (LVP) was measured with a 5F high fidelity pressure sensitive tip transducer (Millar Instruments, Houston, Tex.) placed in the left ventricular cavity via an apical incision and secured with a purse string suture. A segment of the left anterior descending coronary artery (LAD), proximal to the origin of the first diagonal branch, was dissected free of surrounding tissue. A transit time perivascular flow probe (Transonic Systems Inc., Ithaca, N.Y.) was placed around this segment to measure CBF. Proximal to the flow probe, a 24-gauge modified angiocatheter was inserted for intracoronary infusions. […] The A2A adenosine receptors agonists were administered intracoronary.
Relationship between affinity of various agonists for A2A adenosine receptor and the reversal time of their effect to increase coronary conductance was determined in pigs. Each experiment was preceded by a 30-minute stabilization period following the completion of all instrumentation of the animal. Baseline hemodynamic data were then recorded and an intracoronary infusion of an A2A Adenosine receptors agonist was initiated. Each infusion was maintained for 4-5 minutes to allow LAD CBF to reach a steady-state, after which the infusion was terminated. The times to recovery of CBF by 50% (t0.5) and 90% (t0.9) of the difference from peak effect to baseline CBF were recorded. Ten to 15 minutes after CBF returned to pre-drug values a second infusion with a different agonist was started. […] Hemodynamic measurements were made prior to and following the initiation of the phenylephrine infusion. The phenylephrine infusion rate was adjusted during and following the infusions of the adenosine receptor agonists to maintain arterial blood pressure within 5 mmHg of pre-infusion values. The effect of a maximum of three different agonists was determined in each experiment.

[5] = read-out: Ki, Pig Strialum (A2A)
[6] = read-out: pKi ± SEM, Pig Strialum (A2A) (converted)

A2A adenosine receptors, sequence (K9IW67 1-409): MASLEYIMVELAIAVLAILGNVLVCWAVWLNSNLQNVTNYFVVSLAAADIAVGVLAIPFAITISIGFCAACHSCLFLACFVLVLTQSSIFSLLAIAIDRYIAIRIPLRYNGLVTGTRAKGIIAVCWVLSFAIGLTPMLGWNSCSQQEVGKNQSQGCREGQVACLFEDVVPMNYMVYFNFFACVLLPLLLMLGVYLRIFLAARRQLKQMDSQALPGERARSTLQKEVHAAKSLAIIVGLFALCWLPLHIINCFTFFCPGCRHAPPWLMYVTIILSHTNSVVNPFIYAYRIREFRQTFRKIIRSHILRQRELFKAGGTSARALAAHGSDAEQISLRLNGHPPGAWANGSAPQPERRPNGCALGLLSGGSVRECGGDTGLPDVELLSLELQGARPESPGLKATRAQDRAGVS

Compound | Ki (A2A adenosine receptors; [5]) [nM] | t0.5, time to 50% reversal of the increase in coronary conductance [1] [min] | t0.9, time to 90% reversal of the increase in coronary conductance [1] [min] | further results
Cc1ccc(-c2cnn(-c3nc(N)c4ncn([C@@H]5O[C@H](CO)[C@@H](O)[C@H]5O)c4n3)c2)cc1 | 502 | 13.6 ± 1.3 | 18.9 ± 1.9 | Ki (A2A adenosine receptors; [6]): 490 nM
CCNC(=O)[C@H]1O[C@@H](n2cnc3c(N)nc(NCCc4ccc(CCC(=O)O)cc4)nc32)[C@H](O)[C@@H]1O [CGS21680, 2-p-(2-carboxy-ethyl) phenethyl-amino-5′-N-ethylcarboxamido-adenosine, reference compound] |  |  |  | affinity for the A1 receptor expressed by CHO-K1 cells [2]: relatively low affinities; decrease in coronary perfusion pressure ([3]; 100 nM, isolated rat heart): 23 mmHg; EC50 ([3]; read-out: EC50, Coronary Conductance (Rat Isolated Heart)): 0.54 nM; EC50 ([3]; read-out: pEC50 ± SEM, Coronary Conductance (Rat Isolated Heart) (converted)): 0.537 nM; effect on coronary conductance ([3]; isolated rat hearts, in words): concentration-dependent increases in coronary conductance; t0.5 reversal of increase in coronary blood flow ([4]; 2 ug/kg/min intracoronary): 9.7 ± 0.8 min; t0.9 reversal of increase in coronary blood flow ([4]; 2 ug/kg/min intracoronary): 21.4 ± 0.8 min
Nc1nc(-n2cc(-c3ccc(Cl)cc3)cn2)nc2c1ncn2[C@@H]1O[C@H](CO)[C@@H](O)[C@H]1O [CVT-3141, (4S,2R,3R,5R)-2-{6-amino-2-[4-(4-chlorophenyl)pyrazole]purin-9-yl}-5-(hydroxymethyl)oxolane-3,4-diol] |  | 14.4 ± 1.9 | 21.3 ± 3.9 | 
CCCCC#Cc1nc(N)c2ncn([C@@H]3O[C@H](C(=O)NCC)[C@@H](O)[C@H]3O)c2n1 [HENECA, 2-hexynyladenosine-5′-N-ethyl-, reference compound] | 7.96 | 28.6 ± 1.1 | 32.8 ± 3.1 | pKi ± SEM, Pig Strialum (A2A) (A2A adenosine receptors): 8.10 ± 0.08
C[C@H](Cc1ccccc1)Nc1ncnc2c1ncn2[C@@H]1O[C@H](CO)[C@@H](O)[C@H]1O [R-PIA, Phenylisopropyladenosine, reference compound] | 1110 |  |  | pKi ± SEM, Pig Strialum (A2A) (A2A adenosine receptors): 5.96 ± 0.06
CCCCCCC#Cc1nc(N)c2ncn([C@@H]3O[C@H](CO)[C@@H](O)[C@H]3O)c2n1 [YT-146, reference compound] | 16.3 | 17.7 ± 1.0 | 25.8 ± 4.0 | pKi ± SEM, Pig Strialum (A2A) (A2A adenosine receptors): 7.86 ± 0.33; CBF (fold-increase) ([4]; 1 ug/kg/min intracoronary): 3.44 ± 0.47 fold; t0.5 reversal of increase in coronary blood flow ([4]; 1 ug/kg/min intracoronary): 17.8 ± 3.4 min; t0.9 reversal of increase in coronary blood flow ([4]; 1 ug/kg/min intracoronary): 32.9 ± 5.6 min

Second part, led by results:

Ki (A2A adenosine receptors; [5]) [nM] | Compound | t0.5, time to 50% reversal of the increase in coronary conductance [1] [min] | t0.9, time to 90% reversal of the increase in coronary conductance [1] [min] | further results
1010 | Nc1nc(-c2cccs2)nc2c1ncn2[C@@H]1O[C@H](CO)[C@@H](O)[C@H]1O [CVT-3003, (4S,2R,3R,5R)-2-(6-amino-2-(2-thienyl)pruin-9-yl)-5-(hydroxymethyl)oxolane-3,4-diol] | 3.4 ± 0.1 | 9.2 ± 2.2 | 
64 | Nc1nc(C#CCOc2ccccc2Cc2ccccc2)nc2c1ncn2[C@@H]1O[C@H](CO)[C@@H](O)[C@H]1O [CVT-3006, (4S,2R,3R,5R)-2-(6-amino-2-{3-[2-benzylphenoxy]prop-1-ynyl}purin-9-yl)-5-(hydroxymethyl)oxolane-3,4-diol] | 16.1 ± 0.1 | 21.8 ± 2.0 | Ki (A2A adenosine receptors; [6]): 57.5 nM
697 | Cc1ccc(-c2nc(N)c3ncn([C@@H]4O[C@H](CO)[C@@H](O)[C@H]4O)c3n2)s1 [CVT-3100] | 5.1 ± 0.6 | 10.1 ± 0.2 | 
94 | N#Cc1ccc(OCC#Cc2nc(N)c3ncn([C@@H]4O[C@H](CO)[C@@H](O)[C@H]4O)c3n2)cc1 [CVT-3101, 4-(3-{9-[(4S,2R,3R,5R)-3,4-dihydroxy-5-(hydroxymethyl)oxolan-2-yl]-6-aminopurin-2-yl}prop-2-ynyloxy)benzenecarbonitrile] | 16.7 ± 0.5 | 25.6 ± 0.3 | 
1670 | Nc1nc(-c2cnn(CCCc3ccccc3)c2)nc2c1ncn2[C@@H]1O[C@H](CO)[C@@H](O)[C@H]1O [CVT-3126, (4S,2R,3R,5R)-2-{6-amino-2-[1-(3-phenylpropyl)pyrazol-4-yl]purin-9-yl}-5-(hydroxymethyl)oxolane-3,4-diol] | 8.3 ± 0.4 | 12.6 ± 0.3 | 
64 | CCOC(=O)c1cnn(-c2nc(N)c3ncn([C@@H]4O[C@H](CO)[C@@H](O)[C@H]4O)c3n2)c1 [CVT-3127, ethyl 1-{9-[(4S,2R,3R,5R)-3,4-dihydroxy-5-(hydromethyl)oxolan-2-yl]-6-aminopurin-2-yl}pyrazole-4-carboxylate] | 14.8 ± 2.1 | 15.0 ± 0.8 | Ki (A2A adenosine receptors; [6]): 60.3 nM
